Reference: publication PMC11062899, “De novo development of small cyclic peptides that are orally bioavailable” (Nature Chemical Biology, 2023)

Target: human α-thrombin (Homo sapiens, UniProt P00734)
Assay: Sub-library screen for active and permeable cyclic peptides (PAMPA plus thrombin inhibition)
Format: biochemical
Conditions: crude, slopes normalized to DMSO; for Residual thrombin activity: Top sample: PAMPA acceptor well after 14 h, 5 μM donor; for Residual thrombin activity: Equilibrated sample: donor sample diluted to theoretical equilibrium (1 μM in assay)
Protocol: Linear dithiol peptides were synthesized in fritted 5-ml polypropylene syringes on a MultiPep RSi parallel peptide synthesizer (Intavis) by standard Fmoc-based solid-phase peptide synthesis on cysteamine 2-chlorotrityl resin (Sigma-Aldrich, 8.56000, 1.63 mmol g^−1 loading, 25 μmol scale) as described above with small changes. Amino acids (65 μmol, 2.6 eq.) were activated with HATU (63 μmol, 2.5 eq.) and NMM (145 μmol, 5.8 eq.) in 280 μl of DMF and 5 μl of NMP and let to react with the resin (25 μmol, 1 eq.) for 45 min. Couplings were performed twice for each amino acid. Resin was washed once with 800 μl of DMF, and unreacted amines were capped with 5% acetic anhydride and 6% 2,6-lutidine in 400 μl of DMF for 5 min. The resin was washed six times with 600 μl of DMF, and Fmoc protecting groups were removed by incubating the resin twice with 450 μl of a 20% piperidine solution in DMF for 5 min. The resin was washed six times with 600 μl of DMF before proceeding to the next coupling cycle. After completing the last coupling cycle, the resin was washed six times with […] of DCM. Peptide cleavage and ether precipitation were carried out as described above. After quantification with Ellman’s reagent, 1 μmol of each peptide was transferred in seven replicates to new Nunc 96-well DeepWell polypropylene plates and lyophilized. Peptides were cyclized as described above to afford 20 mM cyclic peptide stock solutions in DMSO containing 160 mM HEPES sodium salt. The amine on cyclic peptides was acylated with 5-chlorothiophene-2-carboxylic acid as follows. A 160 mM solution in 5-chlorothiophene-2-carboxylic acid was prepared in DMSO containing 160 mM HEPES sodium salt, and the acid was activated by mixing in equal volumes with a 160 mM HSTU solution in DMSO. Then, 10 μl of the activated carboxylic acid solutions and the cyclic peptide stocks were placed in Echo Qualified 384-well Low Dead Volume microplates (Labcyte), and 400 nl of cyclic peptide and 400 nl of HSTU-activated 5-chlorothiophene-2-carboxylic acid were transferred combinatorially to 384-well microplates (Greiner, 781076) using the Echo 650 acoustic liquid handler (Labcyte). Plates were centrifuged at 2,000 g for 2 min, and the reaction was allowed to proceed at room temperature for 8 h before addition of 39.2 μl of DMSO with a CERTUS FLEX liquid dispenser (Gyger). A volume of 25 μl of the resulting DMSO solutions was diluted with PBS buffer at pH 7.4 containing 5% DMSO in Nunc 96-well DeepWell polypropylene plates to afford 5 μM solutions of the acylated peptides.
The PAMPA plates were covered with a lid to avoid evaporation and incubated for 14 h at room temperature. Additionally, a diluted donor sample was prepared at the concentration representing theoretical maximum permeability (3 μM). Thereby, 30 μl of the donor sample before incubation was diluted with 20 μl of PBS buffer at pH 7.4 containing 5% DMSO. Volumes of 16 μl of each acceptor well and the diluted donor samples were transferred to a 384-well microplate (Greiner, 781076), and thrombin activity was measured as follows. Human α-thrombin (16 μl, 6 nM, Molecular Innovations) in assay buffer was dispensed into each well using a CERTUS FLEX liquid dispenser (Gyger), and plates were incubated at room temperature for 10 min. Then, 16 μl of a 150 μM fluorogenic thrombin substrate solution (Z-Gly-Gly-Arg-AMC, Bachem) in assay buffer containing 1% DMSO was added to each well, and thrombin inhibition was determined by measuring the fluorescent gain over time. Fluorescence intensity was measured on a Tecan Infinite M200 Pro microplate reader for 30 min at 25 °C with a fluorescent readout every 3 min (excitation: 360 nm, emission: 465 nm). Protease inhibition was calculated by comparing the enzymatic activity to a control without cyclic peptide.

SMILES	Residual thrombin activity: Top sample	Residual thrombin activity: Equilibrated sample
Cc1cccc(C[C@@H]2NC(=O)[C@@H](NC(=O)c3ccc(Cl)s3)CSCc3cccc(n3)CSCCNC(=O)C[C@H]3CCCN3C2=O)c1 [C1-X37-L1]	86.5	84.1
COc1ccc(C[C@@H]2NC(=O)[C@@H](NC(=O)c3ccc(Cl)s3)CSCc3ccc(cc3)CSCCNC(=O)C[C@H]3CCCN3C2=O)cc1 [C1-X33-L3]	96.4	98.9
O=C1C[C@H]2CCCN2C(=O)[C@H](Cc2ccc(C(F)(F)F)cc2)NC(=O)[C@@H](NC(=O)c2ccc(Cl)s2)CSCc2cccc(n2)CSCCN1 [C1-X36-L1]	93.6	98.9
Cc1cccc(C[C@@H]2NC(=O)[C@@H](NC(=O)c3ccc(Cl)s3)CSC/C=C/CSCCNC(=O)C[C@H]3CCCN3C2=O)c1 [C1-X37-L4]	87.8	60.4
O=C1C[C@H]2CCCN2C(=O)[C@H](Cc2ccc(C(F)(F)F)cc2)NC(=O)[C@@H](NC(=O)c2ccc(Cl)s2)CSCc2ccc(cc2)CSCCN1 [C1-X36-L3]	95.8	94.6
CN1C(=O)[C@@H](NC(=O)c2ccc(Cl)s2)CSCc2cccc(c2)CSCCNC(=O)C[C@H]2CCCN2C(=O)[C@@H]1Cc1ccccc1 [C1-X32-L5]	98.6	96.6
O=C1C[C@H]2CCCN2C(=O)[C@@H](Cc2ccccc2)NC(=O)[C@@H](NC(=O)c2ccc(Cl)s2)CSCc2ccccc2CSCCN1 [C1-X31-L6]	88.4	91.2
Cc1cccc(C[C@@H]2NC(=O)[C@@H](NC(=O)c3ccc(Cl)s3)CSCCS(=O)(=O)CCSCCNC(=O)C[C@H]3CCCN3C2=O)c1 [C1-X37-L2]	93.0	57.2
N#Cc1ccc(C[C@@H]2NC(=O)[C@@H](NC(=O)c3ccc(Cl)s3)CSCc3ccccc3CSCCNC(=O)C[C@H]3CCCN3C2=O)cc1 [C1-X35-L6]	90.5	92.5
CN1C(=O)[C@@H](NC(=O)c2ccc(Cl)s2)CSCCS(=O)(=O)CCSCCNC(=O)C[C@H]2CCCN2C(=O)[C@@H]1Cc1ccccc1 [C1-X32-L2]	96.4	95.3
COc1ccc(C[C@@H]2NC(=O)[C@@H](NC(=O)c3ccc(Cl)s3)CSCC(=O)CSCCNC(=O)C[C@H]3CCCN3C2=O)cc1 [C1-X33-L7]	97.9	101.4
O=C1C[C@H]2CCCN2C(=O)[C@H](Cc2ccc(Cl)cc2)NC(=O)[C@@H](NC(=O)c2ccc(Cl)s2)CSCc2cccc(c2)CSCCN1 [C1-X34-L5]	97.0	98.5
O=C1C[C@H]2CCCN2C(=O)[C@H](Cc2ccc(C(F)(F)F)cc2)NC(=O)[C@@H](NC(=O)c2ccc(Cl)s2)CSCc2ccccc2CSCCN1 [C1-X36-L6]	91.2	94.8
O=C1C[C@H]2CCCN2C(=O)[C@H](Cc2ccc(Cl)cc2)NC(=O)[C@@H](NC(=O)c2ccc(Cl)s2)CSCc2ccc(cc2)CSCCN1 [C1-X34-L3]	96.0	94.6

Next, values leading:

Residual thrombin activity: Top sample	Residual thrombin activity: Equilibrated sample	SMILES
93.2	95.8	N#Cc1ccc(C[C@@H]2NC(=O)[C@@H](NC(=O)c3ccc(Cl)s3)CCCSCc3cccc(n3)CSCCNC(=O)C[C@H]3CCCN3C2=O)cc1 [C3-X35-L1]
103.5	93.7	O=C1C[C@H]2CCCN2C(=O)[C@@H](Cc2ccccc2)NC(=O)[C@@H](NC(=O)c2ccc(Cl)s2)CCCSCCS(=O)(=O)CCSCCN1 [C3-X31-L2]
103.2	97.2	N#Cc1ccc(C[C@@H]2NC(=O)[C@@H](NC(=O)c3ccc(Cl)s3)CCCSC/C=C/CSCCNC(=O)C[C@H]3CCCN3C2=O)cc1 [C3-X35-L4]
99.5	96.0	CN1C(=O)[C@@H](NC(=O)c2ccc(Cl)s2)CCCSCc2ccccc2CSCCNC(=O)C[C@H]2CCCN2C(=O)[C@@H]1Cc1ccccc1 [C3-X32-L6]
103.3	101.3	O=C1C[C@H]2CCCN2C(=O)[C@H](Cc2ccc(C(F)(F)F)cc2)NC(=O)[C@@H](NC(=O)c2ccc(Cl)s2)CCSC/C=C/CSCCN1 [C2-X36-L4]
64.7	75.1	O=C1C[C@H]2CCCN2C(=O)[C@H](Cc2ccccc2)NC(=O)[C@@H](NC(=O)c2ccc(Cl)s2)CCCSCc2cccc(n2)CSCCN1 [C3-X5-L1]
101.7	101.7	O=C1CSCCC[C@H](NC(=O)c2ccc(Cl)s2)C(=O)N[C@@H](Cc2ccc(C(F)(F)F)cc2)C(=O)N2CCC[C@@H]2CC(=O)NCCSC1 [C3-X36-L7]
92.4	51.6	Cc1cccc(C[C@@H]2NC(=O)[C@@H](NC(=O)c3ccc(Cl)s3)CCCSCCS(=O)(=O)CCSCCNC(=O)C[C@H]3CCCN3C2=O)c1 [C3-X37-L2]
73.4	33.5	O=C1CSCCC[C@H](NC(=O)c2ccc(Cl)s2)C(=O)N[C@@H](Cc2ccccc2)C(=O)N2CCC[C@@H]2CC(=O)NCCSC1 [C3-X5-L7]
96.1	92.4	O=C1C[C@H]2CCCN2C(=O)[C@@H](Cc2ccccc2)NC(=O)[C@@H](NC(=O)c2ccc(Cl)s2)CCCSCc2cccc(n2)CSCCN1 [C3-X31-L1]
94.2	95.9	CN1C(=O)[C@@H](NC(=O)c2ccc(Cl)s2)CCSCc2ccccc2CSCCNC(=O)C[C@H]2CCCN2C(=O)[C@@H]1Cc1ccccc1 [C2-X32-L6]
104.6	95.0	Cc1cccc(C[C@@H]2NC(=O)[C@@H](NC(=O)c3ccc(Cl)s3)CCSCc3cccc(c3)CSCCNC(=O)C[C@H]3CCCN3C2=O)c1 [C2-X37-L5]
99.7	94.6	COc1ccc(C[C@@H]2NC(=O)[C@@H](NC(=O)c3ccc(Cl)s3)CCCSCc3cccc(n3)CSCCNC(=O)C[C@H]3CCCN3C2=O)cc1 [C3-X33-L1]
99.3	99.5	O=C1C[C@H]2CCCN2C(=O)[C@H](Cc2ccc(Cl)cc2)NC(=O)[C@@H](NC(=O)c2ccc(Cl)s2)CCSCCS(=O)(=O)CCSCCN1 [C2-X34-L2]
103.4	103.4	CN1C(=O)[C@@H](NC(=O)c2ccc(Cl)s2)CCCSCCS(=O)(=O)CCSCCNC(=O)C[C@H]2CCCN2C(=O)[C@@H]1Cc1ccccc1 [C3-X32-L2]
100.7	91.1	O=C1C[C@H]2CCCN2C(=O)[C@H](Cc2ccc(Cl)cc2)NC(=O)[C@@H](NC(=O)c2ccc(Cl)s2)CCCSC/C=C/CSCCN1 [C3-X34-L4]
